In US20060166316A1, “Phosphodiesterase 10a7 isoforms and methods of use” (Memory Pharmaceuticals Corporation, priority 2003, published 2006):

Experiments:
[1] = target: T1, mmPDE10A7 (Mus musculus, UniProt Q8CA95, M75I); test: Km determination with [3H]-cAMP/cAMP or [3H]-cGMP/cGMP; assay type: biochemical; conditions: substrate of mmPDE10A7; 30 minutes at room temperature, pH 8.0
T1 construct: Full-length mmPDE10A7 cDNA cloned in the pENTR vector was recombined to pDEST™8; made in house; host or cells: Sf9 insect cells (baculovirus, pDEST8 / DH10BAC); used as crude cell lysate supernatant, dialysed for IMAP
T1 sequence (Q8CA95 with tags, fused parts or gaps M75I): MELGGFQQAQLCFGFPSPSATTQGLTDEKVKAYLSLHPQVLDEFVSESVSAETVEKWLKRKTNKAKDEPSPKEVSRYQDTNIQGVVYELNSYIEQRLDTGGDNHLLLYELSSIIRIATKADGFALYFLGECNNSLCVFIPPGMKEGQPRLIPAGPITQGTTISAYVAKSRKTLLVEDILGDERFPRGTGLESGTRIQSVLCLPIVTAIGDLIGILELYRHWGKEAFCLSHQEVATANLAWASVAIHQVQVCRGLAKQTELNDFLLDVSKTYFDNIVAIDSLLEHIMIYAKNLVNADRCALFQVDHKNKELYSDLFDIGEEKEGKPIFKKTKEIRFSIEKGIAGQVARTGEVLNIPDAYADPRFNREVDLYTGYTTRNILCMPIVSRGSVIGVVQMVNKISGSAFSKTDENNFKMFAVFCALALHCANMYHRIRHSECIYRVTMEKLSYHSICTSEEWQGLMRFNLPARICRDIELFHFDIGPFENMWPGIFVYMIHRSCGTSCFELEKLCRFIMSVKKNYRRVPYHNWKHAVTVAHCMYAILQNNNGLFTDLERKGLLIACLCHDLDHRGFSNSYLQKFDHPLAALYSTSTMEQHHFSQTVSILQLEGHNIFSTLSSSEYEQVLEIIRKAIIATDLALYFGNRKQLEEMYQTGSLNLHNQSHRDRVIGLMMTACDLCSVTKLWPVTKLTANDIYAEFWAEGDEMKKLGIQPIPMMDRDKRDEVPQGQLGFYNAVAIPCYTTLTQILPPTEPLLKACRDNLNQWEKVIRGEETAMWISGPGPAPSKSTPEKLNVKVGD
Text: (§1) Full-length mmPDE10A7 cDNA cloned in the pENTR vector was recombined to pDEST™8 by clonase in DH5α competent bacteria (Invitrogen). DH10BAC, the competent bacteria containing baculovirus genome, was then transformed with the pDEST™8-mmPDE10A7. The white colonies were selected in the presence of gentamicin, kanamycin, tetracycline, Bluogal and IPTG and were confirmed by PCR. Log-phase sf9 cells were then transfected with recombinant baculovirus DNA by the method of Cellfectin in a 6-well plate. Forty-eight to seventy-two hours after the transfection, 0.5 ml medium from the transfected cell plate was added into a 175-cm^2 flask containing 2×10^7 sf9 cells for further amplification of the recombinant baculovirus. The sf9 cells were collected 48 hours after infection.
(§2) To prepare the cell lysate, the sf9 cells expressing mmPDE10A7 were resuspended in cell lysis buffer containing Tris/HCl (pH 7.5) 50 mM, NaCl 10 mM, EGTA 5 mM, EDTA (pH 8.0) 1 mM, DTT 1 mM, Protease Inhibitor Cocktail (Roche) 1 tablet per 50 ml buffer. The cell suspension was then homogenized with a Polytron (PT2100) at speed 20 for 20 seconds on ice and centrifuged at 10,000×g for 20 minutes. The supernatant was then collected and stored at −80° C.

[2] = target: T1, mmPDE10A7; test: IMAP fluorescence polarization compound inhibition assay; assay type: biochemical; conditions: recombinant mmPDE10A7 in sf9 cell lysate
Text: as §1, §2
Then, the cassette was placed in 1 liter of fresh assay buffer and continued to dialyze for 2 more hours at 4° C. After the second dialysis, the cell lysate was recovered with a clean syringe and stored at −80° C.
An IMAP Assay kit (Molecular Device) was used to assess enzyme properties of mmPDE10A7. […] Both the enzyme and the substrates were diluted in the following assay buffer: Tris/HCl (pH 8.0) 50 mM, MgCl2 5 mM, 2-mercaptoethanol 4 mM, BSA 0.33 mg/ml. After incubation, the reaction was stopped by adding 20 μl of diluted (400-fold) binding reagents and was incubated for an hour at room temperature. Then, the plates were counted in Analyst GT (Molecular Device) for fluorescence polarization. The data were analyzed with SoftMax Pro. The high end (EC80 to EC100) of the linear range was served as the working enzyme concentration for compound inhibition assays.
Then, the reaction was stopped by adding 20 μl of diluted binding reagents and counted in Analyst GT for fluorescence polarization.

[3] = fluorescein labeled cAMP substrate
[4] = fluorescein labeled cGMP substrate

SMILES | Km [1] [µM] | IC50 [2, 3] | IC50 [2, 4] | IC50 ([2]; IC50, fluorescein labeled cAMP substrate) [nM] | IC50 ([2]; IC50, fluorescein labeled cGMP substrate) [nM]
Nc1nc2c(ncn2[C@@H]2O[C@@H]3COP(=O)(O)O[C@H]3[C@H]2O)c(=O)[nH]1 [cGMP, cyclic guanosine 5′ monophosphate] | 3.7 | – | – | – | –
Cc1[nH]c(=O)c(C#N)cc1-c1ccncc1 [milrinone] | – | No inhibition | No inhibition | – | –
COc1ccc(Cc2nccc3cc(OC)c(OC)cc23)cc1OC [papaverine] | – | – | – | 44 | 22
CCOC(=O)C1=C[C@]2(CC)CCCN3CCc4c(n1c1ccccc41)[C@@H]32 [vinpocetine] | – | No inhibition | No inhibition | – | –
